# Test results published in PMC8443589, “Modelling human liver fibrosis in the context of non-alcoholic steatohepatitis using a microphysiological system” (Communications Biology, 2021).
# What was measured:
# [1] = clinical dose, cited from earlier work
# human NASH patients = settings: 18-month interim analysis; cited from earlier work
# [2] = test system: liver MPS NASH model + TGFβ (PHH, KC and HSC co-cultures, high fat); experiment: Secreted cytokine profile of enhanced liver MPS NASH model with TGFβ dosed with OCA or ELF (Fig 6a); assay type: cell-based, human; settings: for IL-1RA production, fold change compared to control / IL-4 production, fold change compared to control / IL-6 production, fold change compared to control / IL-8 production, fold change compared to control / IP-10 production, fold change compared to control / MCP-1 production, fold change compared to control / MIP-1a production, fold change compared to control / MIP-1b production, fold change compared to control / VEGF production, fold change compared to control: vs NASH + TGFβ control
# From the text: The systems biology approach identified TGFβ to be a key driver in creating a more advanced NASH phenotype in the MPS model, with enhanced fibrotic markers and reduced liver function. […] Therefore, we explored how effective pharmacological intervention would be for NASH microtissues with high NPC numbers supplemented with TGFβ and exposed them to varying concentrations of OCA and ELF QD as previously described (Supp. Fig. 6a). […] OCA had the greatest effect on IL-1Rα whereas ELF had the greatest effect on MCP-1 reflecting the fact that while both candidate drugs have anti-inflammatory properties, but their mechanisms of action are different. […] Finally, we used our quantitative fibrosis imaging assay to assess the effect of each candidate drug on collagen-1 deposition and α-SMA expression (Fig. 6c). […] Both candidate drugs caused a significant reduction in collagen-1 deposition and α-SMA expression, with the highest concentrations of OCA and ELF causing an 80% reduction in α-SMA expression and a 75% reduction in collagen-1 deposition (Fig. 6c).
# Fig. 6 Using enhanced liver MPS NASH model with TGFβ, Obeticholic acid and Elafibranor modulate disease phenotype to a greater extent than in standard NASH model. PHH, KC and HSC co-cultures were cultured in the MPS platform under high-fat conditions and dosed with varying concentrations of Obeticholic acid (OCA) and Elafibranor (ELF) QD or vehicle control for 10 days, following an initial 4-day pre-culture phase. Throughout the compound dosing period TGFβ was also dosed onto all microtissues (NASH only vehicle control samples were also included in the study for comparison, which were not treated with TGFβ or dosed with any compound). a The secreted cytokine profile from treated liver microtissues was compared to determine the effects of each compound on the inflammatory profile of the liver with samples analysed at day 8 and 14 of the culture. Data were normalised by Z-transformation to allow comparison of all analytes (white = undetected). b The expression of fibrosis-associated biomarkers was analysed on day 14 media samples and compared to NASH + TGFβ control samples. c Liver microtissues were stained for collagen-type I, α-SMA, nuclei (DAPI), phalloidin (green) and imaged by confocal microscopy. Representative images are shown and scale bars 200 µm. Staining of microtissues was quantified by measuring total fluorescence intensity throughout individual microtissues, each data point represents an average of all microtissues per MPS culture (min 8, max 20). All datapoints shown with error bars highlighting means ± SD, all data from a minimum of three independent cultures: all comparisons were made to NASH + TGFβ control samples.
# Cytokine profiles in cell culture medium samples were also analysed by Luminex array for determination of 38 analytes in total, consisting of cytokines, chemokines, and growth factors using the MILLIPLEX MAP Human Cytokine/Chemokine Magnetic Bead Panel - Premixed 38 Plex (Merck Millipore, USA).
# Liver microtissues were cultured for 4 days in HEP-FAT medium, before dosing with obeticholic acid or elafibranor. Both compounds were dissolved in DMSO, diluted in cell culture medium (final DMSO concentration ≤1%) and added to microtissues during a full medium change every two days and in addition on the intervening days compounds were spiked into the media to increase drug concentration back to desired concentrations. Cultures were maintained in the presence of the compound, for a total of 10 days in the presence or absence of TGFβ.
compound,measurement,setting,value
CC[C@H]1[C@@H](O)[C@@H]2[C@H](CC[C@]3(C)[C@@H]([C@H](C)CCC(=O)O)CC[C@@H]23)[C@@]2(C)CC[C@@H](O)C[C@@H]12 [Obeticholic acid],liver Cmax,[1],12500 nM
same,Cmax,[1]; read-out: Plasma Cmax,500 nM
same,NASH resolution in phase 3 trial,human NASH patients,did not reach statistical significance
same,liver fibrosis in phase 3 trial,human NASH patients,improved liver fibrosis
same,"IL-1RA production, fold change compared to control","[2]; 0.25 µM, Day 8",1.08 fold change
same,"IL-4 production, fold change compared to control","[2]; 0.25 µM, Day 8",1.009 fold change
same,"IL-6 production, fold change compared to control","[2]; 0.25 µM, Day 8",1.014 fold change
same,"IL-8 production, fold change compared to control","[2]; 0.25 µM, Day 8",1.005 fold change
same,"IP-10 production, fold change compared to control","[2]; 0.25 µM, Day 8",1.251 fold change
same,"MCP-1 production, fold change compared to control","[2]; 0.25 µM, Day 8",1.076 fold change
same,"MIP-1a production, fold change compared to control","[2]; 0.25 µM, Day 8",0.8432 fold change
same,"MIP-1b production, fold change compared to control","[2]; 0.25 µM, Day 8",0.7821 fold change
same,"VEGF production, fold change compared to control","[2]; 0.25 µM, Day 8",1.067 fold change
same,"IL-1RA production, fold change compared to control","[2]; 0.25 µM, Day 14",0.5028 fold change
same,"IL-4 production, fold change compared to control","[2]; 0.25 µM, Day 14",0.8171 fold change
same,"IL-6 production, fold change compared to control","[2]; 0.25 µM, Day 14",0.4566 fold change
same,"IL-8 production, fold change compared to control","[2]; 0.25 µM, Day 14",0.6873 fold change
same,"IP-10 production, fold change compared to control","[2]; 0.25 µM, Day 14",1.095 fold change
same,"MCP-1 production, fold change compared to control","[2]; 0.25 µM, Day 14",0.7086 fold change
same,"MIP-1a production, fold change compared to control","[2]; 0.25 µM, Day 14",0.8386 fold change
same,"VEGF production, fold change compared to control","[2]; 0.25 µM, Day 14",1.001 fold change
same,"IL-1RA production, fold change compared to control","[2]; 5 µM, Day 8",0.6972 fold change
same,"IL-4 production, fold change compared to control","[2]; 5 µM, Day 8",1.1399 fold change
same,"IL-6 production, fold change compared to control","[2]; 5 µM, Day 8",1.2962 fold change
same,"IL-8 production, fold change compared to control","[2]; 5 µM, Day 8",1.283 fold change
same,"IP-10 production, fold change compared to control","[2]; 5 µM, Day 8",1.04 fold change
same,"MCP-1 production, fold change compared to control","[2]; 5 µM, Day 8",0.9329 fold change
same,"MIP-1a production, fold change compared to control","[2]; 5 µM, Day 8",0.9021 fold change
same,"MIP-1b production, fold change compared to control","[2]; 5 µM, Day 8",0.7383 fold change
same,"VEGF production, fold change compared to control","[2]; 5 µM, Day 8",1.4206 fold change
same,"IL-1RA production, fold change compared to control","[2]; 5 µM, Day 14",0.2072 fold change
same,"IL-4 production, fold change compared to control","[2]; 5 µM, Day 14",1.048 fold change
same,"IL-6 production, fold change compared to control","[2]; 5 µM, Day 14",0.937 fold change
same,"IL-8 production, fold change compared to control","[2]; 5 µM, Day 14",0.8309 fold change
same,"IP-10 production, fold change compared to control","[2]; 5 µM, Day 14",1.661 fold change
same,"MCP-1 production, fold change compared to control","[2]; 5 µM, Day 14",0.6601 fold change
same,"MIP-1a production, fold change compared to control","[2]; 5 µM, Day 14",1.231 fold change
same,"MIP-1b production, fold change compared to control","[2]; 5 µM, Day 14",1.514 fold change
same,"VEGF production, fold change compared to control","[2]; 5 µM, Day 14",2.374 fold change
same,"IL-1RA production, fold change compared to control","[2]; 12.5 µM, Day 8",0.3318 fold change
same,"IL-4 production, fold change compared to control","[2]; 12.5 µM, Day 8",0.7385 fold change
same,"IL-6 production, fold change compared to control","[2]; 12.5 µM, Day 8",0.7346 fold change
same,"IL-8 production, fold change compared to control","[2]; 12.5 µM, Day 8",0.6207 fold change
same,"IP-10 production, fold change compared to control","[2]; 12.5 µM, Day 8",1.145 fold change
same,"MCP-1 production, fold change compared to control","[2]; 12.5 µM, Day 8",0.4485 fold change
same,"MIP-1a production, fold change compared to control","[2]; 12.5 µM, Day 8",1.263 fold change
same,"MIP-1b production, fold change compared to control","[2]; 12.5 µM, Day 8",1.247 fold change
same,"VEGF production, fold change compared to control","[2]; 12.5 µM, Day 8",1.208 fold change
same,"IL-1RA production, fold change compared to control","[2]; 12.5 µM, Day 14",0.02359 fold change
same,"IL-4 production, fold change compared to control","[2]; 12.5 µM, Day 14",0.2784 fold change
same,"IL-6 production, fold change compared to control","[2]; 12.5 µM, Day 14",0.3766 fold change
same,"IL-8 production, fold change compared to control","[2]; 12.5 µM, Day 14",0.4421 fold change
same,"IP-10 production, fold change compared to control","[2]; 12.5 µM, Day 14",0.932 fold change
same,"MCP-1 production, fold change compared to control","[2]; 12.5 µM, Day 14",0.2604 fold change
same,"MIP-1a production, fold change compared to control","[2]; 12.5 µM, Day 14",1.011 fold change
same,"MIP-1b production, fold change compared to control","[2]; 12.5 µM, Day 14",1.454 fold change
same,"VEGF production, fold change compared to control","[2]; 12.5 µM, Day 14",0.8682 fold change
same,cytokine on which the drug had the greatest effect,"[2]; NASH microtissues, high NPC, + TGFβ",IL-1Rα
